Source: US7354931B2, “Heterocyclic retinoid compounds” (Roche Palo Alto LLC, priority 2001, dated 2008)

Assays:
RAR β = target: T1, RAR β (Homo sapiens, UniProt P10826); experiment: Ligand binding assay, retinoic acid receptor β; details: second value of α/β/γ cell
T1 sequence (P10826 1-455): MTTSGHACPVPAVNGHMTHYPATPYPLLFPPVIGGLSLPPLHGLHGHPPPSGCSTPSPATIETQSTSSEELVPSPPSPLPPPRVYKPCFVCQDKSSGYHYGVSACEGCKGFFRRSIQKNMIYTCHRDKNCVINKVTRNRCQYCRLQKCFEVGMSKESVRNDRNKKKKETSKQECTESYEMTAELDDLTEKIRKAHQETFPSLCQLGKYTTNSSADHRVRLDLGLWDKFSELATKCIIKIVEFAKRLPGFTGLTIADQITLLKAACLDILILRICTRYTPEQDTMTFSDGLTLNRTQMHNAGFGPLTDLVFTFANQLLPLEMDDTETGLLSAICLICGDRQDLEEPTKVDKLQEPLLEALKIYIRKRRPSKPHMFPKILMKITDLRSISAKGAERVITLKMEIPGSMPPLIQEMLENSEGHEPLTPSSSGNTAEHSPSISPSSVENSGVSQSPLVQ
Text: (§1) The retinoic acid receptor agonist selectivity of a compound of the invention may be determined by using ligand binding assays known to the skilled artisan (Apfel et al., Proc. Natl. Acad. Sci., 1992, 89, 7129; Teng et al., J. Med. Chem., 1997, 40, 2445; Bryce et al., U.S. Pat. No. 5,807,900 which are herein incorporated by reference). Treatment with RAR agonists, particularly RAR γ agonists may promote repair of alveolar matrix and septation, which are in important in treating emphysema. It should be noted that RAR agonists that are not γ selective may be effective in treating emphysema
as §1, with “emphysema” for “emphysema.”, “emphysema.” for “emphysema”

RAR γ = target: T2, RAR γ (Homo sapiens, UniProt P13631); experiment: Ligand binding assay, retinoic acid receptor γ; details: third value of α/β/γ cell
T2 sequence (P13631 1-454): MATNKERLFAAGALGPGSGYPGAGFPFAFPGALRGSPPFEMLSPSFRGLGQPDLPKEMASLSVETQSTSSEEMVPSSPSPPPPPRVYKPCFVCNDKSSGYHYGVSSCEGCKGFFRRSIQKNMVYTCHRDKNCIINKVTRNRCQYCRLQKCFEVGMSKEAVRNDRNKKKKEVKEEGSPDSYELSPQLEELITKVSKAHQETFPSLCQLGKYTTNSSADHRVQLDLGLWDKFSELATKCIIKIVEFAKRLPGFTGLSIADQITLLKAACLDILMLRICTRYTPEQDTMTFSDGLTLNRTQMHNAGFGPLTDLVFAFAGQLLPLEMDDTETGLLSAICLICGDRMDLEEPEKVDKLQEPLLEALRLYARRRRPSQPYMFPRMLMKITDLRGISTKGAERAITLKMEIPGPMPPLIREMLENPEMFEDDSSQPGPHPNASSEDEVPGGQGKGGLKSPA
Text: as §1
as §1, with “emphysema” for “emphysema.”, “emphysema.” for “emphysema”

RAR α = target: T3, RAR α (Homo sapiens, UniProt P10276); experiment: Ligand binding assay, retinoic acid receptor α; details: first value of α/β/γ cell
T3 sequence (P10276 1-462): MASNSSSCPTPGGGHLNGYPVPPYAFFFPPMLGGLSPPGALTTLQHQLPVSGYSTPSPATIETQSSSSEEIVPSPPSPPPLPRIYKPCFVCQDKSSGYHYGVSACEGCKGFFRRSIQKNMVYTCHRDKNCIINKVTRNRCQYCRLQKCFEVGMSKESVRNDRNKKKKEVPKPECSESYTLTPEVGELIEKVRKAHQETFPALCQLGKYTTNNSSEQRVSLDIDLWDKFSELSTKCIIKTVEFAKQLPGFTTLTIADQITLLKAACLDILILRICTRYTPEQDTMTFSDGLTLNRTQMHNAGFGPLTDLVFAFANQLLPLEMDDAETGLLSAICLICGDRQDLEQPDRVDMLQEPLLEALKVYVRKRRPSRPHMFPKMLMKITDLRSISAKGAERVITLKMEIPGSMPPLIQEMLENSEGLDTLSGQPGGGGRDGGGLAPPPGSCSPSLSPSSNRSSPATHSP
Text: as §1
as §1, with “emphysema” for “emphysema.”, “emphysema.” for “emphysema”

[1] = system: rat model of elastase-induced emphysema; experiment: Alveolar repair in rat model of elastase-induced emphysema; assay type: in vivo, male Sprague Dawley rats; details: once per day starting 21 days post elastase injury, relative to elastase+vehicle group
Text: Compounds of the invention may be evaluated for their effects on alveolar repair in the rat model of elastase-induced emphysema (Massaro et al., Nature, 1997, Vol. 3, No. 6: 675; Massaro et al., U.S. Pat. No. 5,998,486). Preferably, animals are divided into treatment groups of approximately eight. Lung inflammation and alveolar damage may be induced in male Sprague Dawley rats by a single instillation of about 2 U/gram body mass of pancreatic elastase (porcine derived, Calbiochem).
Animals may be treated with a compound of the invention formulated Miglyol at convenient oral dosage ranges (preferably, between about 10.0 mg/kg and 0.0001 mg/kg) and will be dosed orally once per day starting 21 days post injury. Control groups are challenged with elastase and 21 days later are treated with vehicle (Miglyol) for 14 days. Animals were sacrificed 24 hours after the last dose by exsanguination under deep anesthesia. Blood was collected at time of exsanguination for analysis.
The lungs are inflated with 10% neutral buffered formalin by intratracheal instillation at a constant rate (1 ml/gram body mass/min). The lung is excised and immersed in fixative for 24 hours prior to processing. Standard methods were used to prepare 5 μm paraffin sections. Sections were stained with Hematoxylin and Eosin. Alveolar measurements were made in four regions of the lung/rat by Computerized Morphometric analysis. The mean value/treatment group may be determined by summing the average area/rat for all eight rats/treatment groups and repair of elastase damage expressed as percentage of repair relative to the elastase+vehicle treated group from the following calculation: […]

| Compound | IC50 (RAR β) | IC50 (RAR γ) | IC50 (RAR α) | melting point | % Alveolar repair ([1]; dose 1 μg/kg p.o.) | % Alveolar repair ([1]; dose 10 μg/kg p.o.) | % Alveolar repair ([1]; dose 100 μg/kg p.o.) |
| --- | --- | --- | --- | --- | --- | --- | --- |
| CCCCCC(/C=C/c1ccc(C(=O)O)cc1)c1ccc2c(c1)OCCC2(C)C (racemic) [Example 5.3, 4-[3-(4,4-dimethyl-chroman-7-yl)-oct-1-enyl]-benzoic acid] | 2920 nM | 3870 nM | 6920 nM |  |  |  |  |
| CCCCCC(/C=C/c1ccc(C(=O)O)cc1)c1ccc2c(c1)N(CC)CCC2(C)C (racemic) [Example 5.6, 4-[3-(1-ethyl4,4-dimethyl-1,2,3,4-tetrahydro-quinolin-7-yl)-oct-1-enyl]-benzoic acid] | 1470 nM | 1000 nM | 1280 nM |  |  |  |  |
| CCCCCC(COc1ccc(C(=O)O)cc1)c1ccc2c(c1)SCCC2(C)C (racemic) [Example 5.2, 4-[2-(4,4-dimethyl-thiochroman-7-yl)-heptyloxy]-benzoic acid] | 3010 nM | 3230 nM | 2070 nM | 123 to 123.5 °C |  |  |  |
| CCCCCC(COc1ccc(C(=O)O)cc1)c1ccc2c(c1)OCCC2(C)C (racemic) [Example 5.1, 4-[2-(4,4-dimethyl-chroman-7-yl)-heptyloxy]-benzoic acid] | 3160 nM | 3770 nM | 3920 nM | 91.5 to 93.3 °C |  |  |  |
| CCCCCC(/C=C/c1ccc(C(=O)O)cc1)c1ccc2c(c1)SCCC2(C)C (racemic) [Example 5.4, 4-[3-(4,4-dimethyl-thiochroman-7-yl)-oct-1-enyl]-benzoic acid] | 1490 nM | 2330 nM | 1580 nM |  |  |  |  |
| CCCCCC(/C=C/c1ccc(C(=O)O)cc1)c1ccc2c(c1)N(C)CCC2(C)C (racemic) [Example 5.5, 4-[3-(1,4,4-trimethyl-1,2,3,4-tetrahydro-quinolin-7-yl)-oct-1-enyl]-benzoic acid] | 1940 nM | 1420 nM | 1460 nM |  | 65% | 54% | 60.9% |

Continued, in another order:

| IC50 (RAR β) | IC50 (RAR γ) | IC50 (RAR α) | melting point | Compound | % Alveolar repair ([1]; dose 1 μg/kg p.o.) | % Alveolar repair ([1]; dose 10 μg/kg p.o.) | % Alveolar repair ([1]; dose 100 μg/kg p.o.) |
| --- | --- | --- | --- | --- | --- | --- | --- |
| 1050 nM | > 10000 nM | 3390 nM |  | CCC(/C=C/c1ccc(C(=O)O)cc1)c1ccc2c(c1)N(C)CCC2(C)C (racemic) [Example 5.7, 4-[3-(1,4,4-trimethyl-1,2,3,4-tetrahydro-quinolin-7-yl)-pent-1-enyl]-benzoic acid] |  |  |  |
| 3260 nM | 4060 nM | 6290 nM |  | CCCCCC(/C=C/c1ccc(C(=O)O)cc1F)c1ccc2c(c1)N(C)CCC2(C)C (racemic) [Example 5.11, 3-fluoro-4-[3-(1,4,4-trimethyl-1,2,3,4-tetrahydro-quinolin-7-yl)-oct-1-enyl]-benzoic acid] |  |  |  |
| 4150 nM | 5440 nM | 3170 nM |  | CCCCCC(COc1ccc(C(=O)O)cc1)c1ccc2c(c1)N(C)CCC2(C)C (racemic) [Example 5.12, 4-[2-(1,4,4-trimethyl-1,2,3,4-tetrahydro-quinolin-7-yl)-heptyloxy]-benzoic acid] |  |  |  |
| 3130 nM | 3600 nM | 2520 nM |  | CCCCCC(COc1ccc(C(=O)O)cc1)c1ccc2c(c1)N(CC)CCC2(C)C (racemic) [Example 5.13, 4-[2-(1-ethyl4,4-dimethyl-1,2,3,4-tetrahydro-quinolin-7-yl)-heptyloxy]-benzoic acid] |  |  |  |
| 8270 nM | 6390 nM | 5140 nM |  | CCCCCC(/C=C/c1ccc(C(=O)O)cc1)c1ccc2c(c1)NCCC2(C)C (racemic) [Example 5.10, 4-[3-(4,4-dimethyl-1,2,3,4-tetrahydro-quinolin-7-yl)-oct-1-enyl]-benzoic acid] |  |  |  |
